Where two headings read alike, the source gives them in different places.
What was measured:
[1] = system: primates; details: cited from earlier work
[2] = system: rhythmic bladder-voiding contractions; test: Rhythmic bladder-voiding contractions induced by bladder filling in anaesthetised rats; format: in vivo, rat; details: for ED50: Rattus norvegicus
Method: Female Sprague-Dawley rats weighing 225-275 g (Crl: CD® (SD) IGS BR, Charles River Italia) were used. The animals were housed with free access to food and water and maintained on a forced 12-hour alternating light-dark cycle at 22-24° C. for at least one week, except during the experiment. The activity on rhythmic bladder voiding contractions was evaluated according to the method of Dray (Dray J., Pharmacol. Methods, 13:157, 1985), with some modifications as in Guarneri (Guarneri, Pharmacol. Res. 27:173, 1993). Briefly, the rats were anaesthetised by subcutaneous injection of 1.25 g/kg (5 ml/kg) urethane, after which the urinary bladder was catheterised via the urethra using PE 50 polyethylene tubing filled with physiological saline. The catheter was tied in place with a ligature around the external urethral orifice and was connected to conventional pressure transducers (Statham P23 ID/P23 XL). […] The bladder was then filled via the recording catheter by incremental volumes of warm (37° C.) saline until reflex bladder-voiding contractions occurred (usually 0.8-1.5 ml). For intravenous injection of bioactive compounds, PE 50 polyethylene tubing filled with physiological saline was inserted into the jugular vein.
From the cystometrogram, the number of contractions recorded 15 minutes before (basal values) and after treatment, as well as the mean amplitude of these contractions (mean height of the peaks in mmHg), was evaluated.
Since most compounds produced an effect that was relatively rapid in onset and led to a complete cessation of bladder contractions, bioactivity was conveniently estimated by measuring the duration of bladder quiescence (i.e., the time during which no contractions occurred). The number of tested animals showing a reduction in the number of contractions higher than 30% of that observed in the basal period was recorded too.
The extrapolated doses which induced a reduction in the number of contractions greater than 30% in 50% of the treated rats (ED50) were also evaluated by the method of Bliss (Bliss C. I., Quart J. Pharm. Pharmacol. 11, 192-216, 1938).

[3] = system: urinary bladder; test: Cystometric parameters in conscious rats after oral administration; format: in vivo, rat; details: 3 mg/kg p.o., 1-5 h after treatment
Method: Male Sprague-Dawley rats [Crl: CD® (SD) IGS BR] of 300-400 g body weight supplied by Charles River Italia were used. The animals were housed with free access to food and water and maintained on a forced 12-hour-light/12-hour-dark cycle at 22-24° C. of temperature, except during the experiment. To quantify urodynamic parameters in conscious rats, cystometrographic studies were performed according to the procedure previously reported (Guarneri et al., Pharmacol. Res. 24: 175, 1991).
Briefly, the rats were anaesthetised by intraperitoneal administration of 3 ml/kg of Equithensin solution (pentobarbital 30 mg/kg and chloral hydrate 125 mg/kg) and placed in a supine position. An approximately 10 mm-long midline incision was made in the shaved and cleaned abdominal wall. The urinary bladder was gently freed from adhering tissues, emptied and then cannulated via an incision in the bladder body, using a polyethylene cannula (0.58-mm internal diameter, 0.96-mm external diameter) which was permanently sutured with silk thread. The cannula was exteriorised through a subcutaneous tunnel in the retroscapular area, where it was connected to a plastic adapter in order to avoid the risk of removal by the animal. For drug testing, the rats were utilised one day after implantation.
On the day of the experiment, the rats were placed in modified Bollman cages, i.e., restraining cages that were large enough to permit the rats to adopt a normal crouched posture, but narrow enough to prevent turning around. After a stabilisation period of about 20 minutes, the free tip of the bladder cannula was connected through a T-shaped tube to a pressure transducer (Statham P23XL) and to a peristaltic pump (Gilson minipuls 2) for continues infusion of a warm (37° C.) saline solution into the urinary bladder, at a constant rate of 0.1 ml/minute. The intraluminal-pressure signal during infusion of saline into the bladder was continuously recorded on a polygraph (Rectigraph-8K San-ei with BM614/2 amplifier from Biomedica Mangoni). The cystometrogram was used to evaluate the urodynamic parameters of bladder volume capacity (BVC) and micturition pressure (MP). BVC (ml) is defined as the volume of saline infused into the bladder necessary to induce detrusor contraction followed by micturition. MP (mmHg) is defined as the maximal intravesical pressure caused by contraction during micturition. Basal BVC and MP values were evaluated as mean of the values observed in the cystometrograms recorded in an initial period of 30-60 minutes. Following determination of basal BVC and MP, the infusion was interrupted and the test compounds were administered orally by a stomach tube. Bladder infusion was resumed and changes in BVC and MP were evaluated from the mean values obtained in the cystometrograms observed during 1, 2, 3, 4 and 5 hours after treatment. Compounds were administered in a volume of 2 ml/kg and groups of control animals received the same amount of vehicle (0.5% methocel in water) orally.
Data were expressed as mean ±standard error. The percent changes of BVC and MP versus the basal values, as well as Δ values (difference in ml or mmHg) of BVC and MP (BVC or MP at time “x” minus basal value), were also evaluated for each rat/time. In the figures, data were reported as % changes versus basal values.
Statistical analysis on BVC and MP values, as well as on Δ values, was performed by S.A.S./STAT software, version 6.12. The observed differences between vehicle (control) and test treatments were evaluated on Δ values of BVC and MP, whereas the differences between the values at different times versus basal values were analyzed on original BVC and MP data.

[4] = system: marmosets; details: 2 mg/kg i.m., visual spatial discrimination; cited from earlier work
[5] = system: release of glutamate and acetylcholine; details: dentate gyrus of the hippocampus; cited from earlier work
[6] = system: 5-HT1A agonist discriminative stimulus cue; details: 0.01-1 mg/kg i.m.; cited from earlier work
[7] = system: aged rhesus monkeys; details: 1 mg/kg p.o.; cited from earlier work

## COc1ccccc1N1CCN(CCN(C(=O)C2CCCCC2)c2ccccn2)CC1 [WAY-100635]
[1]
  cognitive deficits induced by glutamatergic and cholinergic dysfunction: can alleviate

## CCN(CC)CC#CCOC(=O)C(O)(c1ccccc1)C1CCCCC1 (stereo not drawn) [Oxybutynin, oxybutynin]
[2]; intravenous administration, n.a. = not active, no significant reduction of the height of the peaks, read-out: ED50 (amplitude) (extrapolated dose inducing a 30% reduction of amplitude of the contractions in 50% of treated rats)
  ED50: 0.24 mg/kg
[2]; intravenous administration, read-out: ED50 (frequency) (extrapolated dose inducing a reduction of the number of contractions >30% in 50% of treated rats)
  ED50: > 10 mg/kg
[2]; at 240 μg/kg
  frequency of bladder contractions: did not lower the frequency
[2]; intravenous administration
  ED10 min (extrapolated dose inducing 10 minutes of disappearance of the contractions): 7.77 mg/kg
[3]
  bladder volume capacity (BVC): slight, not-significant increase
  micturition pressure (MP): greatly reduced

## C[C@H](CN(C(=O)c1ccc(C#N)cc1)c1ccccn1)N1CCN(c2cccc3c2OCCO3)CC1 [lecozotan]
[4]
  learning deficits induced by MK-801 and by cholinergic lesions of the hippocampus: reversed
[5]
  potassium chloride-stimulated release of glutamate and acetylcholine: significantly potentiated
[6]
  blockade of the 5-HT1A agonist discriminative stimulus cue: dose-related blockade
  substitution for 8-OH-DPAT: did not substitute
[7]
  task performance efficiency: significant improvement
